# Laboratory results taken from patent US5877202A, “Indole derivatives useful to treat estrogen-related neoplasms and disorders” (priority 1996, dated 1999).
# Columns and labels:
# [1] = tested on: MCF-7 human breast tumor cells; experiment: Inhibition of growth of MCF-7 human breast tumor cells; assay type: cell-based; conditions: MCF7, MCF-7 cells, medium with 0.001 mg/ml insulin
# [2] = tested on: tamoxifen-resistant LY-2 cells; experiment: Inhibition of growth of tamoxifen-resistant LY-2 cells; assay type: cell-based; conditions: medium with 0.001 mg/ml insulin
# MCF-7 estrogen receptor = target: T1, MCF-7 estrogen receptor (Homo sapiens, UniProt P03372); experiment: Competitive binding assay, Relative Binding Affinities on binding of estradiol to MCF-7 estrogen receptor
# T1 construct: estrogen receptor extracted from MCF-7 human breast tumor cells; endogenous in cells; host or cells: MCF-7 human breast cancer cells (nuclear extract, cytosol or whole cell extract)
# T1 sequence (P03372 1-595): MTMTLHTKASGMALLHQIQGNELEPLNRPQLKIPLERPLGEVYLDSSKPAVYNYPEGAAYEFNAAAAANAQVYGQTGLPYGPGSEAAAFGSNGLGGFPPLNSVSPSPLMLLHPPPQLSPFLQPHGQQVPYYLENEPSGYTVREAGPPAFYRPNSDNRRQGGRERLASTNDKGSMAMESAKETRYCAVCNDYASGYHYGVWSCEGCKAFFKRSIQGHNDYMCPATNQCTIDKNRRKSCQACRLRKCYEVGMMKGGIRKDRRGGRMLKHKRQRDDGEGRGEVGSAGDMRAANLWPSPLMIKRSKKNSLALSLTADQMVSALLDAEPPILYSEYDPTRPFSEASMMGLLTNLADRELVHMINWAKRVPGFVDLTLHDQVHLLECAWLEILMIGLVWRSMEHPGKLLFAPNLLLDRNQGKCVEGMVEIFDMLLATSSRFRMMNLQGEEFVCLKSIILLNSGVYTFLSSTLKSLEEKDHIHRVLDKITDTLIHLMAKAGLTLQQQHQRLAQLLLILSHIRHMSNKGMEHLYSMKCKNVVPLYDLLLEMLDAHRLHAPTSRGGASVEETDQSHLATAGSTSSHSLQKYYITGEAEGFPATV
# Procedure: Briefly, RBAs are determined from competitive binding assays with several concentrations of estradiol (E2) with and without test compound. After 16-18 hours of incubation at 4 degrees C., unbound [^3 H] E2 is separated from ER-bound [^3 H] E2. The IC50 is determined and the RBA is calculated as: […]
# estrogen receptor mRNA = experiment: Reduction of estrogen receptor mRNA levels in treated MCF-7 human breast tumor cells; assay type: cell-based;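 on Estrogen Receptor mRNA band intensity: Phosphoimager intensity of radioactive mRNA bands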
# Procedure: (§1) After treatment with 30 μM drug for 24 hr, total RNA is isolated according to the guanidinium isothiocyanate method using an RNA preparation kit from 5 Prime-3 Prime, Inc., following the manufacturer's instructions. The RNA is separated by formaldehyde gel electrophoresis and transferred to a nylon membrane.
# MCF-7 tumors = experiment: Inhibition of growth of MCF-7 tumors implanted in nu/nu mice; assay type: in vivo, female nu/nu mice; conditions: for tumor volume: n = 5, in mm³
# estrogen receptors = target: T2, estrogen receptors (Homo sapiens, UniProt P03372); experiment: Quantification of estrogen receptors in nuclear and whole cell extracts (ER-EIA monoclonal kit), Table 1; assay type: cell-based, human (MCF-7 human breast cancer cells); conditions: estrogen receptors in nuclear extracts
# T2 construct: estrogen receptor extracted from MCF-7 human breast tumor cells; endogenous in cells; host or cells: MCF-7 human breast cancer cells (nuclear extract, cytosol or whole cell extract)
# T2 sequence (P03372 1-595): T1 sequence (P03372 1-595)
# Procedure: Monolayers of MCF-7 human breast cancer cells are rinsed once with HBSS and scraped off culture dishes into 15 ml conical tubes with 5 ml HBSS. The cells are sedimented by centrifugation at 250×g for five minutes, suspended in 1 ml HBSS and sedimented by centrifugation at 2000 rpm in a tabletop centrifuge for five minutes in a 1.5 ml microfuge tube. Two PCV of a solution of a lysis buffer (25 mM HEPES, pH 7.8, 50 mM KCl, 0.5% Nonidet P 40, 2 mM dithiothreitol, 0.2 mM phenylmethylsulfonyl fluoride, 0.05 mg/ml leupeptin, 0.05 mg/ml aprotinin, 0.0025 mg/ml pepstatin, 0.005 mg/ml antipain) are added and cells are kept on ice for 15 minutes. Lysed cells are centrifuged for 3 minutes at 10,000×g, supernatant decanted, and kept as the cytosol fraction. Pellets are suspended in two PCV of extraction buffer (25 mM HEPES, pH 7.8, 500 mM KCl, 10% glycerol, 2 mM dithiothreitol and the above protease inhibitors), mixed for 20 minutes by inversion at 4 degrees C. and centrifuged at 10,000×g for 20 minutes. The supernatant is decanted and saved as nuclear extract. Both the nuclear extract and the cytosol are dialyzed for two hours against dialysis buffer (25 mM HEPES, pH 7.8, 50 mM KCl, 10% glycerol, 2 mM dithiothreitol and the above protease inhibitors). Nuclear and cytosol fractions are stored frozen at -80 degrees C. until used for mobility shift assays or determination of estrogen receptor content.
# Whole cell extracts of tumor cells are prepared by the method of Reese and Katzenellenbogen, Nuc. Acids Res., 19: 6595-6602 (1991), with some modifications. Cell monolayers are rinsed once with HBSS, then scraped into HBSS and sedimented by centrifugation (5 min., 250×g). After resuspending in 1 mL HBSS, the cells are again sedimented at 250×g for 5 min at 4° C. The cell pellet is resuspended in lysis/extract buffer containing 20 mM Tris, pH 7.5, 10% glycerol (v/v), 0.5M sodium chloride and 0.5% NP-40 (v/v) and incubated on ice for 25 minutes, then the supernatants are dialyzed against 25 mM HEPES, pH 7.8, 10% glycerol (v/v), 0.5 mM dithiothreitol and 50 mM potassium chloride for 2 hours at 4° C. Both the lysis/extraction and the dialysis buffers contain protease inhibitors which included 0.5 mM phenylmethylsulfonylfluoride, 0.05 mg/mL leupeptin, 0.05 mg/mL aprotinin, 0.00-25 mg/mL pepstatin, and 0.005 mg/mL antipain. Dialyzed whole cell extracts are stored in aliquots at -80° C. until used.
# The protein concentration for nucleus and cytosol fractions are determined with a BIO-RAD kit, according to the manufacturer's instructions.
# Estrogen receptor levels in nuclear and whole cell extracts of tumor cells were quanitated using the ER-EIA monoclonal kit manufactured by Abbott Laboratories (Diagnostic Division) according to the kit instructions.
# receptors in nuclear extracts.
# .dagger.WCE refers to IC50 value for estrogen receptors in whole cel
# A slash dividing two numbers indicates the results of two separate
# GAPDH mRNA = GAPDH mRNA levels in treated MCF-7 human breast tumor cells (positive control probe); assay type: cell-based; conditions: 30 μM, 24 hr;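 further: Phosphoimager intensity of radioactive mRNA bands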
# Procedure: as §1
structure (smiles),measurement,setting,value
"CCCCN(C)C(=O)CCCCCCCNC(=O)Cc1c(C)n(C(=O)c2ccc(Cl)cc2)c2ccc(O)cc12 [MDL 101,906, 8-[[5-Hydroxy-1-(4-chlorobenzoyl)-2-methyl-1H-indol-3-yl]-acetylamino]-octanoic acid methyl-butyl-amide]",IC50,[1],3.8 µM
same,IC50,[2],4.7 µM
same,inhibition of estradiol binding to MCF-7 ER,MCF-7 estrogen receptor; doses of 100 or 200 nM,did not significantly inhibit
same,inhibition of estradiol binding to MCF-7 ER,"MCF-7 estrogen receptor; typically, at doses of 100 or 200 nM",less than 10%
same,ER/GAPDH mean,"estrogen receptor mRNA; 30 μM, 24 hr, mean of replicates 1 and 2",0.53
same,ER/GAPDH,"estrogen receptor mRNA; 30 μM, 24 hr, replicate 1",0.98
same,Estrogen Receptor mRNA band intensity,"estrogen receptor mRNA; 30 μM, 24 hr, replicate 1","5,142"
same,ER/GAPDH,"estrogen receptor mRNA; 30 μM, 24 hr, replicate 2",0.38
same,Estrogen Receptor mRNA band intensity,"estrogen receptor mRNA; 30 μM, 24 hr, replicate 2","1,916"
same,activity at 30 µM,"estrogen receptor mRNA; Homo sapiens, MCF7, 24 h, read-out: ER/GAPDH % Control",18%
same,tumor volume,"MCF-7 tumors; 10 mg/kg i.p., day 14 after tumor implantation",49 ± 18
same,tumor volume,"MCF-7 tumors; 10 mg/kg i.p., day 22 after tumor implantation",111 ± 36
same,tumor volume,"MCF-7 tumors; 10 mg/kg i.p., day 29 after tumor implantation",155 ± 43
same,tumor volume,"MCF-7 tumors; 10 mg/kg i.p., day 36 after tumor implantation",255 ± 70
same,tumor volume,"MCF-7 tumors; 20 mg/kg i.p., day 14 after tumor implantation",58 ± 9
same,tumor volume,"MCF-7 tumors; 20 mg/kg i.p., day 22 after tumor implantation",140 ± 16
same,tumor volume,"MCF-7 tumors; 20 mg/kg i.p., day 29 after tumor implantation",197 ± 30
same,tumor volume,"MCF-7 tumors; 20 mg/kg i.p., day 36 after tumor implantation",282 ± 38
same,tumor volume,"MCF-7 tumors; 50 mg/kg i.p., day 14 after tumor implantation",77 ± 14
same,tumor volume,"MCF-7 tumors; 50 mg/kg i.p., day 22 after tumor implantation",143 ± 13
same,tumor volume,"MCF-7 tumors; 50 mg/kg i.p., day 29 after tumor implantation",178 ± 53
same,tumor volume,"MCF-7 tumors; 50 mg/kg i.p., day 36 after tumor implantation",291 ± 79
same,tumor volume,"MCF-7 tumors; 100 mg/kg i.p., day 14 after tumor implantation",56 ± 10
same,tumor volume,"MCF-7 tumors; 100 mg/kg i.p., day 22 after tumor implantation",81 ± 16
same,tumor volume,"MCF-7 tumors; 100 mg/kg i.p., day 29 after tumor implantation",110 ± 24
same,tumor volume,"MCF-7 tumors; 100 mg/kg i.p., day 36 after tumor implantation",170 ± 41
same,"tumor volume over time, dose dependence",MCF-7 tumors; 10 to 100 mg/kg i.p.,dose-dependent decrease in the tumor volume over time
same,decrease in tumor volume over control,"MCF-7 tumors; highest dose (100 mg/kg), 36 days after tumor implantation",55%
same,size of the tumors compared to control mice,"MCF-7 tumors; intraperitoneal injections, suspension in 20% DMSO/water",reduced the size of the tumors compared to control mice
same,IC50,estrogen receptors,19 µM
same,IC50,estrogen receptors; second of two separate experiments (after the slash),8.6 µM
same,GAPDH mRNA band intensity,GAPDH mRNA; replicate 1,"5,227"
same,GAPDH mRNA band intensity,GAPDH mRNA; replicate 2,"5,077"
